# Experimental data taken from US10550379B2, “Degron fusion constructs and methods for controlling protein production” (THE BOARD OF TRUSTEES OF THE LELAND STANFORD JUNIOR …, priority 2015, dated 2020).
# “Also recorded” adds a separate entry of the source. Peptide text beside a SMILES is read from it. * marks the point of attachment. Cbz = O=C(OCc1ccccc1)*
# Key:
# YFP-NS3pro-NS4A = experiment: degradation pathway of YFP-NS3pro-NS4A in HeLa cells; type: cell-based; settings: ASV 1 μM, 18 to 24 hours post-transfection, MG132 10 μM, bortezomib 66 nM, chloroquine 100 μM, bafilomycin-A1 200 nM
# Source text: FIGS. 8A-8D show characterization of a degron contained in NS3pro-NS4A. […] The hydrophobic N-terminal of NS4A then inserts into the membrane (right). Elements are numbered from N-terminus to C-terminus to clarify order of linkage. […] Removal of the NS3 helicase domain may expose hydrophobic residues in the helicase C-terminus and prevent cleavage at the NS3/4A site, preventing membrane insertion of NS4A. Models were generated using PDB file 1CU1. […] HeLa cells expressed YFP (FIG. 8C) or PSD95 (FIG. 8D) fused to NS3pro-NS4A (wt), or the degron-disrupted mutant (GGS). From 18 to 24 hours post-transfection, cells were treated with ASV (1 μM) and degradation inhibitors (MG, MG132 10 μM; BTZ, bortezomib 66 nM; CHQ, chloroquine 100 μM; BAF, bafilomycin-A1 200 nM). This short time window was used to avoid toxicity by degradation inhibitors. Final DMSO concentration was 0.23% (v/v) for all conditions in (FIG. 8C) and 0.33% for all conditions in (FIG. 8D).
# To determine which cellular proteolytic pathways were responsible for degrading NS3pro-NS4A fusions, we examined the effect of inhibiting proteasomes or autophagosomes. We allowed cells expressing YFP-NS3pro-NS4A to produce uncleaved YFP-NS3pro-NS4A in asunaprevir while applying inhibitors of proteasome or autophagosome degradation (FIG. 8C).
# Chemical Reagents. […]. Further serial dilutions were performed for the dose-dependency experiment. For long-term CLV and ASV incubations, drug was applied simultaneously with transfection media or 1-2 hours after transfection. MG132 (Sigma) was dissolved in DMSO for a 1000× working stock of 10 mM. Bortezomib (Adooq Biosci.) was dissolved in DMSO for a 500× working stock of 33 μM. Chloroquine diphosphate salt (Sigma) was dissolved in H2O for a 1000× (100 mM) working stock. Bafilomycin A1 (Santa Cruz) was dissolved in DMSO for a 500× (100 μM) working stock. Azidohomoalanine (AHA) (Click-IT, Invitrogen) was dissolved in DMSO for a 500× working stock of 25 mM. Alkyne-PEG4-biotin (Invitrogen) was dissolved in DMSO for a 100× working stock of 4 mM. L-cystine dihydrochloride (Sigma) was dissolved in H2O pH 2.0 for a working stock of 0.1 M.
# [1] = in vivo, po; cited from earlier work
# SMASh-Arc = experiment: optimization of N-terminal SMASh tag on Arc in HEK293 cells, immunoblot; settings: HEK293, 24 hours
# MeV-EGFP-P-SMASh = experiment: drug control of MeV-EGFP-P-SMASh in infected Vero cells
# SEC14-SMASh yeast = experiment: yeast spotting assay, SEC14-SMASh knock-in; settings: ASV (3 μM), 48 hours
# SMASh-YFP or YFP-SMASh [2] = experiment: SMASh tag at either terminus of YFP in HEK293 cells; type: cell-based; settings: HEK293, 24 hours
# Source text: NS3 protease sequence (light gray), sequence derived from NS3 helicase (dark gray), and sequence derived from NS4A (medium gray) are shown. NS5A/5B-based protease substrate site is in dark gray. […] DMSO was used as vehicle control. β-actin served as a loading control. […] Scale bar, […].
# YSH1-SMASh yeast = experiment: yeast spotting assay, YSH1-SMASh knock-in; settings: ASV (10 μM), 48 hours
# [3] = test system: panel of cellular proteases; settings: 1.5 μM; cited from earlier work
# MeV-EGFP = experiment: drug effect on parental MeV-EGFP in infected Vero cells; settings: presence of asunaprevir, 72 hours
# SMASh-YFP or YFP-SMASh [4] = experiment: drug repression of SMASh-tagged YFP in budding yeast; type: cell-based, S. cerevisiae; settings: 24 hours, SD media
# Source text: When expressed in yeast from an episomal gene, we found the C-terminal SMASh tag with a protease cleavage site of sequence DEMEEC/S was able to confer drug repression on YFP expression, similarly to its performance in mammalian cells (FIG. 5A, lane 4-6). However, the N-terminal SMASh tag and fast-cleaving site (EDVVPC/S) used in mammalian cells allowed leaky expression of YFP in yeast in the presence of drug (data not shown). […] . […] To the best of our knowledge, SMASh is the first method that uses a single genetic element to impose drug control over the expression of specific proteins in yeast.
# Yeast Strains and Cell Growth.
# [5] = test system: AID target protein expressed from the ADH promoter; settings: cited from earlier work
# GluRIIA-CFP-SMASh = GluRIIA-CFP-SMASh (Hepatitis C virus genotype 1a, UniProt P27958, T1080A/T1100M/T1173A); type: cell-based, Drosophila; settings: HEK293, 24 hours
# HEK293 cells = experiment: protein half-life by SMASh shutoff, immunoblotting and mathematical model
compound,measurement,setting,value
CC(C)C[C@@H](C=O)NC(=O)[C@H](CC(C)C)NC(=O)[C@H](CC(C)C)NC(=O)OCc1ccccc1 [MG132] (Cbz-Leu-Leu-Leu-aldehyde),YFP-NS3pro-NS4A protein levels,YFP-NS3pro-NS4A,modestly increased
C=C[C@@H]1C[C@]1(NC(=O)[C@@H]1C[C@@H](Oc2ncc(OC)c3ccc(Cl)cc23)CN1C(=O)[C@@H](NC(=O)OC(C)(C)C)C(C)(C)C)C(=O)NS(=O)(=O)C1CC1 [asunaprevir],concentration that can be maintained in plasma and organs for hours,[1],150 nM
same,"Arc protein suppression, 6-aa linker with the NS5A/5B substrate",SMASh-Arc,complete protein suppression
same,"Arc protein suppression, 18-aa linker with the NS5A/5B substrate",SMASh-Arc,incomplete
same,suppression of EGFP fluorescence compared to the untreated case,"MeV-EGFP-P-SMASh; 3 μM ASV, 3 days post-transfection (so in the source), Vero cells",97.3%
same,"P production in virus-infected cells, immunoblotting",MeV-EGFP-P-SMASh; presence of asunaprevir,efficiently inhibited
same,EGFP expression and formation of syncytia,"MeV-EGFP-P-SMASh; presence of asunaprevir, Vero cells, 72 hours",completely abolished
same,growth of SEC14-SMASh yeast,SEC14-SMASh yeast,complete growth inhibition
same,YFP fluorescence in living cells,SMASh-YFP or YFP-SMASh [2],nearly undetectable
same,"cleaved and full-length YFP protein, immunoblot",SMASh-YFP or YFP-SMASh [2]; N-terminal or C-terminal fusions,significantly reduced
same,growth of YSH1-SMASh yeast,YSH1-SMASh yeast,suppressed
same,activity against a panel of cellular proteases,[3],no activity
same,EGFP expression and formation of syncytia by parental virus,MeV-EGFP,unaffected
same,"YFP expression, episomal, GPD promoter",SMASh-YFP or YFP-SMASh [4]; 3 μM asunaprevir,undetectable levels; also recorded: completely suppressed
same,"YFP expression, YFP-SMASh integrated into yeast chromosome, GPD promoter","SMASh-YFP or YFP-SMASh [4]; ASV, immunoblot",shutoff
O=C(O)Cc1c[nH]c2ccccc12 [auxin],concentration required for AID to degrade a target protein,[5],1000 µM
CO/C1=C\C(C)=C\[C@@H](C)[C@@H](O)[C@@H](C)C/C(C)=C/C=C/[C@H](OC)[C@@H]([C@@H](C)[C@@H](O)[C@H](C)[C@@]2(O)C[C@@H](O)[C@H](C)[C@@H](C(C)C)O2)OC1=O [bafilomycin A1],YFP-NS3pro-NS4A protein levels,YFP-NS3pro-NS4A,modestly increased
CC(C)C[C@H](NC(=O)[C@H](Cc1ccccc1)NC(=O)c1cnccn1)B(O)O [bortezomib],YFP-NS3pro-NS4A protein levels,YFP-NS3pro-NS4A,modestly increased
CCN(CC)CCCC(C)Nc1ccnc2cc(Cl)ccc12 (centres unmarked) [chloroquine],YFP-NS3pro-NS4A protein levels,YFP-NS3pro-NS4A,modestly increased
COc1ccc2c(O[C@@H]3C[C@H]4C(=O)N[C@]5(C(=O)O)C[C@H]5/C=C\CCCCC[C@H](NC(=O)OC5CCCC5)C(=O)N4C3)cc(-c3csc(NC(C)C)n3)nc2c1 [ciluprevir],GluRIIA expression,GluRIIA-CFP-SMASh,shutoff
"CYP21A2: short-lived protein, released from CYP21A2-SMASh by cleavage",acceleration of degradation by SMASh,HEK293 cells,9 fold
same,decay rate constant kdeg,HEK293 cells,0.312 h⁻¹
same,production rate constant ksyn,HEK293 cells; 24-28 hours post-transfection,0.438 h⁻¹
